Data: patent US9956293B2, “Targeted therapeutics” (Madrigal Pharmaceuticals, Inc., priority 2014, dated 2018)

What follows are molecules tested on HER2 (assay: HER2 degradation assay with BT-474 cell line (Example 12, FACS)). Conditions: Homo sapiens, BT-474; SDC-TRAPs of the 41st table.
Assay type: cell-based
Excerpt: HER2 Degradation Assay with BT-474 Cell Line
HER2 has emerged as a key target for anticancer drugs due to its intrinsic involvement in the phosphatidylinositol-3-kinase-Akt/protein kinase B (PI3K-Akt) and the mitogen-activated protein kinase (MAPK) pathways, both of which suppress apoptosis and promote tumor cell survival, gene transcription, angiogenesis, cellular proliferation, migration, mitosis, and differentiation. The degradation of HER2 is a measure of efficacy of anticancer therapeutics that target Hsp90. Accordingly, the SDC-TRAP molecules of the invention that comprise a binding moiety that binds Hsp90 were tested in the following HER2 degradation assay.
BT-474 cells (human breast cancer cell line ATCC HTB-20) were obtained from ATCC and seeded into 12-well tissue culture plates at 0.2×10^6/1.8 mL/well. […] Each test compound was titrated in 4-fold dilutions from 5 μM to 78 nM with DMSO and 200 μL of the titration was added to each well of the cell plate. The DMSO final concentration was 0.2%. Cells were incubated overnight at 37° C. in 5% CO2.
Media was decanted from the plate, cells were washed 1× in PBS. 400 μL trypsin (EDTA) per well was added, and the cells were incubated for 2 to 3 minutes. Cells were collected into FACS tubes containing 1 ml culture medium to neutralize the trypsin and were centrifuged for 5 minutes at 1200 rpm. Supernatant was decanted and the cells were resuspended in 5 μL FITC (anti HER2/nu)/200 μL staining buffer (1×PBS+1% FBS+0.05% Sodium Azide)/tube. Controls were […] IgG isotype control and staining buffer only. Tubes were incubated for 30 minutes in the dark at room temperature. 1 mL staining buffer was added to each tube and the tubes were centrifuged for 6 minutes at 1200 rpm. The supernatant was decanted and 300 μL staining buffer was added to each tube, which was store at 4° C. for FACS (cytometer) analysis. The cytometer readout was normalized and the potency of each compound is evaluated with IC50 calculated with XLfit™ software.

IC50 | SMILES
1.83 µM | CC(C)c1cc(-c2nnc(O)n2-c2ccc3c(ccn3CCC3CCN(C(=O)c4ccc(CCc5c[nH]c6nc(N)[nH]c(=O)c56)cc4)CC3)c2)c(O)cc1O [SDC-TRAP-0130, 2-amino-5-(4-(4-(2-(5-(3-(2,4-dihydroxy-5-isopropylphenyl)-5-hydroxy-4H-1,2,4-triazol-4-yl)-1H-indol-1-yl)ethyl)piperidine-1-carbonyl)phenethyl)-3H-pyrrolo[2,3-d]pyrimidin-4(7H)-one]

Same assay, conditions: Homo sapiens; BT-474 cells

SMILES | IC50
CC(C)c1cc(-c2nnc(O)n2-c2ccc(N3CCN(CC(=O)Nc4cccc5c4CN(C4CCC(=O)NC4=O)C5=O)CC3)cc2)c(O)cc1O (stereo not shown) [SDC-TRAP-0110, 2-(4-(4-(3-(2,4-dihydroxy-5-isopropylphenyl)-5-hydroxy-4H-1,2,4-triazol-4-yl)phenyl)piperazin-1-yl)-N-(2-(2,6-dioxopiperidin-3-yl)-1-oxoisoindolin-4-yl)acetamide] | > 10 µM
CC(C)c1cc(-c2nnc(O)n2-c2ccc(CC3CCN(C(=O)Nc4cccc5c4CN(C4CCC(=O)NC4=O)C5=O)CC3)cc2)c(O)cc1O (stereo not shown) [SDC-TRAP-0114, 4-(4-(3-(2,4-dihydroxy-5-isopropylphenyl)-5-hydroxy-4H-1,2,4-triazol-4-yl)benzyl)-N-(2-(2,6-dioxopiperidin-3-yl)-1-oxoisoindolin-4-yl)piperidine-1-carboxamide] | 4.31 µM
CC(C)c1cc(-c2nnc(O)n2-c2ccc3c(ccn3CCC3CCN(C(=O)ONC(=O)CCCCCCC(=O)Nc4ccccc4)CC3)c2)c(O)cc1O [SDC-TRAP-0118, N1-((4-(2-(5-(3-(2,4-dihydroxy-5-isopropylphenyl)-5-hydroxy-4H-1,2,4-triazol-4-yl)-1H-indol-1-yl)ethyl)piperidine-1-carbonyl)oxy)-N8-phenyloctanediamide] | 2.35 µM
CC(C)c1cc(-c2nnc(O)n2-c2ccc3c(ccn3CCC3CCN(C(=O)Nc4cccc5c4CN(C4CCC(=O)NC4=O)C5=O)CC3)c2)c(O)cc1O (stereo not shown) [SDC-TRAP-0119, 4-(2-(5-(3-(2,4-dihydroxy-5-isopropylphenyl)-5-hydroxy-4H-1,2,4-triazol-4-yl)-1H-indol-1-yl)ethyl)-N-(2-(2,6-dioxopiperidin-3-yl)-1-oxoisoindolin-4-yl)piperidine-1-carboxamide] | > 10 µM
CC(C)c1cc(-c2nnc(O)n2-c2ccc(CN3CCN(C(=O)COC(=O)Nc4cccc5c4CN(C4CCC(=O)NC4=O)C5=O)CC3)cc2)c(O)cc1O (stereo not shown) [SDC-TRAP-0121, 2-(4-(4-(3-(2,4-dihydroxy-5-isopropylphenyl)-5-hydroxy-4H-1,2,4-triazol-4-yl)benzyl)piperazin-1-yl)-2-oxoethyl(2-(2,6-dioxopiperidin-3-yl)-1-oxoisoindolin-4-yl)carbamate] | 3 µM
CC(C)c1cc(-c2nnc(O)n2-c2ccc3c(ccn3CCOC(=O)Nc3cccc4c3CN(C3CCC(=O)NC3=O)C4=O)c2)c(O)cc1O (stereo not shown) [SDC-TRAP-0122, 2-(5-(3-(2,4-dihydroxy-5-isopropylphenyl)-5-hydroxy-4H-1,2,4-triazol-4-yl)-1H-indol-1-yl)ethyl (2-(2,6-dioxopiperidin-3-yl)-1-oxoisoindolin-4-yl)carbamate] | > 10 µM
CC(C)c1cc(-c2nnc(O)n2-c2ccc(N3CCN(CCCC(=O)Nc4cccc5c4CN(C4CCC(=O)NC4=O)C5=O)CC3)cc2)c(O)cc1O (stereo not shown) [SDC-TRAP-0126, 4-(4-(4-(3-(2,4-dihydroxy-5-isopropylphenyl)-5-hydroxy-4H-1,2,4-triazol-4-yl)phenyl)piperazin-1-yl)-N-(2-(2,6-dioxopiperidin-3-yl)-1-oxoisoindolin-4-yl) butanamide] | 8.64 µM
CC(C)c1cc(-c2nnc(O)n2-c2ccc(CC(=O)N(C)CCOC(=O)Nc3cccc4c3CN(C3CCC(=O)NC3=O)C4=O)cc2)c(O)cc1O (stereo not shown) [SDC-TRAP-0127, 2-(2-(4-(3-(2,4-di hydroxy-5-isopropylphenyl)-5-hydroxy-4H-1,2,4-triazol-4-yl)phenyl)-N-methylacetamido)ethyl(2-(2,6-dioxopiperidin-3-yl)-1-oxoisoindolin-4-yl)carbamate] | 8.09 µM
CC(C)c1cc(-c2nnc(O)n2-c2ccc(CN3CCN(CC(=O)Nc4cccc5c4CN(C4CCC(=O)NC4=O)C5=O)CC3)cc2)c(O)cc1O (stereo not shown) [SDC-TRAP-0128, 2-(4-(4-(3-(2,4-dihydroxy-5-isopropylphenyl)-5-hydroxy-4H-1,2,4-triazol-4-yl)benzyl)piperazin-1-yl)-N-(2-(2,6-dioxopiperidin-3-yl)-1-oxoisoindolin-4-yl)acetamide] | 6.91 µM
CC(C)c1cc(-c2nnc(O)n2-c2ccc3c(ccn3CCC3CCN(CC(=O)Nc4cccc5c4CN(C4CCC(=O)NC4=O)C5=O)CC3)c2)c(O)cc1O (stereo not shown) [SDC-TRAP-0129, 2-(4-(2-(5-(3-(2,4-dihydroxy-5-isopropylphenyl)-5-hydroxy-4H-1,2,4-triazol-4-yl)-1H-indol-1-yl)ethyl)piperidin-1-yl)-N-(2-(2,6-dioxopiperidin-3-yl)-1-oxoisoindolin-4-yl)acetamide] | 4.52 µM

Second part, the molecule after the results:

IC50 | SMILES
1.89 µM | COc1cc(O)c(-c2nnc(C(=O)NC(C)C)n2-c2ccc(CN3CCC(C(=O)Nc4cccc5c4CN(C4CCC(=O)NC4=O)C5=O)CC3)cc2)cc1C(C)C (stereo not shown) [SDC-TRAP-0115, N-(2-(2,6-dioxopiperidin-3-yl)-1-oxoisoindolin-4-yl)-1-(4-(3-(2-hydroxy-5-isopropyl-4-methoxyphenyl)-5-(isopropylcarbamoyl)-4H-1,2,4-triazol-4-yl)benzyl)piperidine-4-carboxamide]
1.09 µM | CC(C)c1cc(-c2nnc(O)n2-c2ccc(CN3CCN(C(=O)ONC(=O)CCCCCCC(=O)Nc4ccccc4)CC3)cc2)c(O)cc1O [SDC-TRAP-0117, N1-((4-(4-(3-(2,4-dihydroxy-5-isopropylphenyl)-5-hydroxy-4H-1,2,4-triazol-4-yl)benzyl)piperazine-1-carbonyl)oxy)-N8-phenyloctanediamide]
0.657 µM | CCNC(=O)c1nnc(-c2cc(C(C)C)c(O)cc2O)n1-c1ccc(CN2CCC(C(=O)N3CCC(OC(=O)Nc4cccc5c4CN(C4CCC(=O)NC4=O)C5=O)CC3)CC2)cc1 (stereo not shown) [SDC-TRAP-0123, 1-(1-(4-(3-(2,4-Dihydroxy-5-isopropylphenyl)-5-(ethylcarbamoyl)-4H-1,2,4-triazol-4-yl)benzyl)piperidine-4-carbonyl)piperidin-4-yl (2-(2,6-dioxopiperidin-3-yl)-1-oxoisoindolin-4-yl)carbamate]
0.358 µM | CCNC(=O)c1nnc(-c2cc(C(C)C)c(O)cc2O)n1-c1ccc(CN2CCC(C(=O)N3CCC(COC(=O)Nc4cccc5c4CN(C4CCC(=O)NC4=O)C5=O)CC3)CC2)cc1 (stereo not shown) [SDC-TRAP-0124, (1-(1-(4-(3-(2,4-Dihydroxy-5-isopropylphenyl)-5-(ethylcarbamoyl)-4H-1,2,4-triazol-4-yl)benzyl)piperidine-4-carbonyl)piperidin-4-yl)methyl (2-(2,6-dioxopiperidin-3-yl)-1-oxoisoindolin-4-yl)carbamate]
0.312 µM | CCNC(=O)c1nnc(-c2cc(C(C)C)c(O)cc2O)n1-c1ccc(Oc2ccc(C(=O)N3CCC(COC(=O)Nc4cccc5c4CN(C4CCC(=O)NC4=O)C5=O)CC3)cc2)cc1 (stereo not shown) [SDC-TRAP-0125, (1-(4-(4-(3-(2,4-Dihydroxy-5-isopropylphenyl)-5-(ethylcarbamoyl)-4H-1,2,4-triazol-4-yl)phenoxy)benzoyl)piperidin-4-yl)methyl (2-(2,6-dioxopiperidin-3-yl)-1-oxoisoindolin-4-yl)carbamate]
